Patent US20150125526A1 (Raptor Pharmaceuticals Inc., priority 2013, published 2015)

Key:
[1] = system: mice with the gene mutation for Huntington's disease; conditions: mouse, in vivo; cited from earlier work
[2] = system: Sod2 null mice; conditions: untreated Sod2 null mice die after approximately 1 week; cited from earlier work
[3] = system: Sod2 null mice; test: Administration of cysteamine bitartrate to Sod2 null mice: survival, weight gain, toxicity; assay type: in vivo; conditions: cysteamine bitartrate 30 mg/kg, single dose
Protocol: Sod2 null mice provide a method for determining the efficacy in vivo of compounds having antioxidant properties, particularly those with mitochondrial efficacy. Without antioxidant efficacy, Sod2 null mice die after approximately 1 week, with antioxidant intervention, the lifespan can be extended 3-fold using powerful catalytic synthetic antioxidants such as EUK-189 (Melov et al., J Neurosci. 21(21):8348-53, 2001).
A single dose of the test agent is administered to the animals, either intraperitoneally or subcutaneously.

[4] = system: intracellular cystine (circulating white blood cells); conditions: cited from earlier work
[5] = system: FRDA fibroblasts; conditions: preincubation prior to exposure to BSO; cited from earlier work

## NCCSSCCN [Cystamine]
[1]
  life (survival): prolong life
  tremors: alleviate tremors

## CC(=O)O.CCOc1cccc(C=NCCN=Cc2cccc(OCC)c2[O-])c1[O-].[Mn] [EUK-189]
[2]
  extension of lifespan: 3 fold

## NCCS [cysteamine, Cysteamine (HS—CH2—CH2—NH2)]
[3]; initial experiment
  weight gain compared to untreated animals: normal
[3]; preliminary experiment
  survival analysis: inconclusive
[4]; delivery of cysteamine into the small intestine (WO 2007/089670)
  time to observed decrease in leukocyte cystine: within an hour
[4]; taken regularly, measured in circulating white blood cells
  depletion of intracellular cystine: up to 90%

## COC1=C(OC)C(=O)C(CCCCCCCCCCO)=C(C)C1=O [idebenone]
[5]
  protection from cell death: protected cells from cell death

## vitamin E
[5]
  protection from cell death: protected cells from cell death
